This note sets out measurements from patent publication US20140073634A1 (Institute For Applied Cancer Science/The University of …, priority 2012, published 2014).

In the test the test system is 293T-HRE-GFP-luc cells. Nature of the test: Cell-based reporter assay for IC50 determinations (HRE-luciferase, hypoxia). The note with it: 6 hrs hypoxia (1% O2), luminescence. In outline:
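IC50s come from four-parameter logistic fits of luminescence. Compounds in 1:3 DMSO series were added to 293T-HRE-GFP-luc cells, 30 min normoxia preceding 6 hrs at 1% O2, 37° C; HRE-luciferase signal was then measured with Steadylite Plus reagent.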

pIC50: −log10 of the molar value. Structures can show the parent of a compound that is named as a salt.

On to `COCCOc1cccc(Cn2cc(-c3noc(-c4ccc5c(c4)OCO5)n3)ccc2=O)c1` [Example 223, 5-[5-(2H-1,3-benzodioxol-5-yl)-1,2,4-oxadiazol-3-yl]-1-{[3-(2-methoxyethoxy)phenyl]methyl}-1,2-dihydropyridin-2-one], for which the pIC50 (in general, the negative decadic logarithm of the IC50, by convention in mol/L) (6 h) is 6.00 to 7.00.
On to `CN1CCN(c2cccc(Cn3cc(-c4nc(-c5ccc(OC(F)(F)F)cc5)co4)ccc3=O)c2)CC1` [Example 93, 1-(3-(4-Methylpiperazin-1-yl)benzyl)-5-(4-(4-(trifluoromethoxy)phenyl)oxazol-2-yl)pyridin-2(1H)-one], for which the negative-log IC50 (pIC50) is above 7.00.
On to `CC(C)(O)c1cc(Cn2cc(-c3nc(-c4ccc(OC(F)(F)F)cc4)no3)ccc2=O)ccn1` [Example 50, 1-{[2-(2-Hydroxypropan-2-yl)pyridin-4-yl]methyl}-5-{3-[4-(trifluoromethoxy)phenyl]-1,2,4-oxadiazol-5-yl}-1,2-dihydropyridin-2-one], for which the pIC50 (6 h) is 6.00 to 7.00.
For the setting “6 h”, `COCCOc1cccc(Cn2cc(-c3noc(-c4ccc(OC)cc4)n3)ccc2=O)c1` [Example 191, 1-{[3-(2-methoxyethoxy)phenyl]methyl}-5-[5-(4-methoxyphenyl)-1,2,4-oxadiazol-3-yl]-1,2-dihydropyridin-2-one] had a pIC50 above 7.00.
The same measure, in the same setting: the same measure for `Cc1ccc(-c2nc(-c3ccc(OC(F)(F)F)cc3)no2)c(=O)n1Cc1ccnc(N2CCCCC2)c1` [Example 15, 4-((6-Methyl-2-oxo-3-(3-(4-(trifluoromethoxy)phenyl)-1,2,4-oxadiazol-5-yl)pyridin-1(2H)-yl)methyl)-2-(piperidin-1-yl)pyridin-1-ium trifluoroacetate]: above 7.00; for `Cc1ccc(-c2nc(-c3ccc(OC(F)(F)F)cc3)no2)c(=O)n1Cc1cccc(N2CCN(C)CC2)c1` [Example 6, 1-Methyl-4-(3-((6-methyl-2-oxo-3-(3-(4-(trifluoromethoxy)phenyl)-1,2,4-oxadiazol-5-yl)pyridin-1(2H)-yl)methyl)phenyl)piperazin-1-ium trifluoroacetate]: above 7.00; for `CN1CCN(c2cccc(Cn3cc(-c4cc(-c5ccc(OC(F)(F)F)cc5)no4)ccc3=O)c2)CC1` [Example 96b, 1-(3-(4-methylpiperazin-1-yl)benzyl)-5-(3-(4-(trifluoromethoxy)phenyl)isoxazol-5-yl)pyridin-2(1H)-on]: above 7.00.
The same measure, in the same setting: the same measure for `COCCOc1cccc(Cn2cc(-c3noc(-c4ccc(C5CCCCC5)cc4)n3)ccc2=O)c1` [Example 84, 5-(5-(4-Cyclohexylphenyl)-1,2,4-oxadiazol-3-yl)-1-(3-(2-methoxyethoxy)benzyl)pyridin-2(1H)-one]: above 7.00; for `O=c1ccc(-c2nc(-c3ccc(OC(F)(F)F)cc3)no2)cn1Cc1ccc(F)c(N2CCOCC2)c1` [Example 138, 1-{[4-fluoro-3-(morpholin-4-yl)phenyl]methyl}-5-{3-[4-(trifluoromethoxy)phenyl]-1,2,4-oxadiazol-5-yl}-1,2-dihydropyridin-2-one]: above 7.00; for `COCCOc1cccc(Cn2cc(-c3noc(-c4ccc(C)cc4)n3)ccc2=O)c1` [Example 192, 1-{[3-(2-methoxyethoxy)phenyl]methyl}-5-[5-(4-methylphenyl)-1,2,4-oxadiazol-3-yl]-1,2-dihydropyridin-2-one]: above 7.00.
Still for that read-out and setting: the same measure for `O=c1ccc(-c2nc(-c3ccc(OC(F)(F)F)cc3)no2)cn1Cc1cccc(OC2COC2)c1` [Example 166, 1-{[3-(oxetan-3-yloxy)phenyl]methyl}-5-{3-[4-(trifluoromethoxy)phenyl]-1,2,4-oxadiazol-5-yl}-1,2-dihydropyridin-2-one]: above 7.00; for `NC(=O)c1cccc(Cn2cc(-c3nc(-c4ccc(OC(F)(F)F)cc4)no3)ccc2=O)c1` [Example 25, 3-((2-oxo-5-(3-(4-(trifluoromethoxy)phenyl)-1,2,4-oxadiazol-5-yl)pyridin-1(2H)-yl)methyl)benzamide]: above 7.00.
The molecule `CC(C)(O)c1cccc(Cn2cc(-c3nnc(-c4ccc(OC(F)(F)F)cc4)o3)ccc2=O)c1` [Example 103] showed a pIC50 (6 h) above 7.00.
The same measure, in the same setting: as for `COCCOc1cccc(Cn2cc(-c3noc(-c4ccc(C(C)(C)C)cc4)n3)ccc2=O)c1` [Example 230, 5-[5-(4-tert-butylphenyl)-1,2,4-oxadiazol-3-yl]-1-{[3-(2-methoxyethoxy)phenyl]methyl}-1,2-dihydropyridin-2-one], the figure is 6.00 to 7.00.
Same read-out and setting: as for `COCCOc1cccc(Cn2cc(-c3noc(-c4cnc(SC)nc4)n3)ccc2=O)c1` [Example 86, 1-(3-(2-Methoxyethoxy)benzyl)-5-(5-(2-(methylthio)pyrimidin-5-yl)-1,2,4-oxadiazol-3-yl)pyridin-2(1H)-one], the figure is above 7.00.
Still for that read-out and setting: as for `COCCOc1cccc(Cn2cc(-c3noc(-c4ccc(C5CCSCC5)cc4)n3)ccc2=O)c1` [Example 75, 1-(3-(2-Methoxyethoxy)benzyl)-5-(5-(4-(tetrahydro-2H-thiopyran-4-yl)phenyl)-1,2,4-oxadiazol-3-yl)pyridin-2(1H)-one], the figure is above 7.00; as for `COCCOc1cccc(Cn2cc(-c3nnc(-c4ccc(OC(F)(F)F)cc4)o3)ccc2=O)c1` [Example 102], above 7.00; as for `COCCOc1cccc(Cn2cc(-c3nc(-c4ccc(C5(O)CCCCC5)cc4)no3)ccc2=O)c1` [Example 80, 5-(3-(4-(1-Hydroxycyclohexyl)phenyl)-1,2,4-oxadiazol-5-yl)-1-(3-(2-methoxyethoxy)benzyl)pyridin-2(1H)-one], above 7.00.
On to `O=C(c1cccc(Cn2cc(-c3nc(-c4ccc(OC(F)(F)F)cc4)no3)ccc2=O)c1)N1CCOCC1` [Example 114, 1-(3-(morpholine-4-carbonyl)benzyl)-5-(3-(4-(trifluoromethoxy)phenyl)-1,2,4-oxadiazol-5-yl)pyridin-2(1H)-one], for which the pIC50 (6 h) was above 7.00.
The same measure, in the same setting: the same measure for `Cc1ccc(-c2nc(-c3ccc(OC(F)(F)F)cc3)no2)c(=O)n1Cc1cccc(C(=O)N(C)C)c1` [Example 128, N,N-dimethyl-3-((6-methyl-2-oxo-3-(3-(4-(trifluoromethoxy)phenyl)-1,2,4-oxadiazol-5-yl)pyridin-1(2H)-yl)methyl)benzamide]: 6.00 to 7.00; for `CN1CCN(C(=O)Cc2cccc(Cn3cc(-c4nc(-c5ccc(OC(F)(F)F)cc5)no4)ccc3=O)c2)CC1` [Example 156, 1-({3-[2-(4-methylpiperazin-1-yl)-2-oxoethyl]phenyl}methyl)-5-{3-[4-(trifluoromethoxy)phenyl]-1,2,4-oxadiazol-5-yl}-1,2-dihydropyridin-2-one]: above 7.00.
The same measure, in the same setting: as for `CS(=O)(=O)c1cccc(Cn2cc(-c3nc(-c4ccc(OC(F)(F)F)cc4)no3)ccc2=O)c1` [Example 123, 1-(3-(methylsulfonyl)benzyl)-5-(3-(4-(trifluoromethoxy)phenyl)-1,2,4-oxadiazol-5-yl)pyridin-2(1H)-one], the figure is above 7.00; as for `CC1(C)CCN(c2cc(Cn3cc(-c4nc(-c5ccc(OC(F)(F)F)cc5)no4)ccc3=O)ccn2)CC1` [Example 154, 1-{[2-(4,4-dimethylpiperidin-1-yl)pyridin-4-yl]methyl}-5-{3-[4-(trifluoromethoxy)phenyl]-1,2,4-oxadiazol-5-yl}-1,2-dihydropyridin-2-one], above 7.00.
The same measure, in the same setting: as for `O=C(c1cccc(Cn2nc(-c3nc(-c4ccc(OC(F)(F)F)cc4)no3)ccc2=O)c1)N1CCOCC1` [Example 110, 2-(3-(morpholine-4-carbonyl)benzyl)-6-(3-(4-(trifluoromethoxy)phenyl)-1,2,4-oxadiazol-5-yl)pyridazin-3(2H)-one], the figure is 6.00 to 7.00; as for `CS(=O)(=O)C1CCN(c2cccc(Cn3cc(-c4noc(-c5ccc(N6CCOCC6)cc5)n4)ccc3=O)c2)CC1` [Example 77, 1-(3-(4-(Methylsulfonyl)piperidin-1-yl)benzyl)-5-(5-(4-morpholinophenyl)-1,2,4-oxadiazol-3-yl)pyridin-2(1H)-one], above 7.00.
Molecule `CN1CCN(c2cccc(Cn3nc(-c4nc(-c5ccc(OC(F)(F)F)cc5)no4)ccc3=O)c2)CC1` [Example 13, 2-(3-(4-Methylpiperazin-1-yl)benzyl)-6-(3-(4-(trifluoromethoxy)phenyl)-1,2,4-oxadiazol-5-yl)pyridazin-3(2H)-one] showed a pIC50 (6 h) above 7.00.
The same measure, in the same setting: the same measure for `CS(=O)(=O)C1CCN(c2cc(Cn3cc(-c4nc(-c5ccc(OC(F)(F)F)cc5)no4)ccc3=O)ccn2)CC1` [Example 175, 1-{[2-(4-methanesulfonylpiperidin-1-yl)pyridin-4-yl]methyl}-5-{3-[4-(trifluoromethoxy)phenyl]-1,2,4-oxadiazol-5-yl}-1,2-dihydropyridin-2-one]: above 7.00.
Still for that read-out and setting: as for `COCCOc1cccc(Cn2cc(-c3noc(-c4ccc(CC#N)cc4)n3)ccc2=O)c1` [Example 201, 2-{4-[3-(1-{[3-(2-methoxyethoxy)phenyl]methyl}-6-oxo-1,6-dihydropyridin-3-yl)-1,2,4-oxadiazol-5-yl]phenyl}acetonitrile], the figure is above 7.00; as for `O=c1ccc(-c2nc(-c3ccc(OC(F)(F)F)cc3)no2)cn1Cc1cccc(CCCO)c1` [Example 48, 1-{[3-(3-Hydroxypropyl)phenyl]methyl}-5-{3-[4-(trifluoromethoxy)phenyl]-1,2,4-oxadiazol-5-yl}-1,2-dihydropyridin-2-one], above 7.00.
On the same count and under the same terms, as for `O=c1ccc(-c2nc(-c3ccc(OC(F)(F)F)cc3)no2)cn1Cc1cccc(N2CCNCC2)c1` [Example 59, 1-(3-(piperazin-1-yl)benzyl)-5-(3-(4-(trifluoromethoxy)phenyl)-1,2,4-oxadiazol-5-yl)pyridin-2(1H)-one], the figure is above 7.00.
Consider `CS(=O)(=O)C1CCN(c2cccc(Cn3nc(-c4nc(-c5ccc(N6CCOCC6)cc5)no4)ccc3=O)c2)CC1` [Example 83, 2-(3-(4-(Methylsulfonyl)piperidin-1-yl)benzyl)-6-(3-(4-morpholinophenyl)-1,2,4-oxadiazol-5-yl)pyridazin-3(2H)-one], for which the negative logarithm of the IC50 (pIC50) (6 h) is above 7.00.
Same read-out and setting: the same measure for `COC(=O)c1cc(Cn2nc(-c3nc(-c4ccc(OC(F)(F)F)cc4)no3)ccc2=O)ccn1` [Example 117, methyl 4-((6-oxo-3-(3-(4-(trifluoromethoxy)phenyl)-1,2,4-oxadiazol-5-yl)pyridazin-1(6H)-yl)methyl)picolinate]: 5.00 to 6.00.
